One assay concerns the target T1, TatD825 (Trueperella pyogenes, UniProt A0ABV3NC31).
T1 construct: gene V3M73_06995; His-TatD 825 recombinant protein expressed in E. coli BL21 (DE3)
As to the kind of experiment: SPR (Biacore T200, NTA chip, […] binding model); DNase gel assay with Mg2+ also shows inhibition.

A further assay has as its target T2, TatD960 (Trueperella pyogenes, UniProt A0ABV3N8R6).
T2 construct: gene V3M73_00540; His-TatD 960 recombinant protein expressed in E. coli BL21 (DE3)
The assay is described as above.

As usually defined, the Kd is the concentration at which binding is half-saturated. Read a low Kd as tighter binding.

Structures are written as SMILES.

`O=c1cc(-c2ccc(O)c(O)c2)oc2cc(O)cc(O)c12` [luteolin, 3′,4′,5,7-tetrahydroxyflavone]: the Kd on TatD825 was 5.65 µM; on TatD960, 6.27 µM.
